One series deals with Acetylcholinesterase (Electrophorus electricus, UniProt O42275). The series is described as follows: Inhibition of electric eel AChE using acetylthiocholine iodide as substrate preincubated for 20 mins followed by substrate addition and measured after 5 mins by DTNB-reagent based Ellman's method. For orientation: DTNB colorimetry detects thiols as they appear.
The test system of series [1] is PC-12. Kind of series: Neuroprotective activity against H202-induced cell death in rat PC-12 cells assessed as cell viability at 5 uM pretreated for 3 hrs followed by H2O2 stimulation and measured after 24 hrs by MTT assay relative to control. In kind it is functional. Conditions: time 27 hrs, read-out: Activity. Background: Tetrazolium assays rely on reduction of a dye to a coloured formazan, in cell work by metabolically active cells.

Series [2] relates to PC-12. Kind of series: Neuroprotective activity against H202-induced cell death in rat PC-12 cells assessed as cell viability at 20 uM pretreated for 3 hrs followed by H2O2 stimulation and measured after 24 hrs by MTT assay relative to control. In kind it is functional. Conditions: time 27 hrs, read-out: Activity.
The nature of series [3]: Cytotoxicity against rat PC-12 cells assessed as cell viability at 25 uM incubated for 24 hrs by MTT assay relative to control. In kind it is toxicity, cell-based. Conditions: read-out: Activity.
Series [4] in a line: Cytotoxicity against rat PC-12 cells assessed as cell viability at 50 uM incubated for 24 hrs by MTT assay relative to control. Conditions: read-out: Activity. In kind it is toxicity, cell-based.
In the next series the target is Cholinesterase (Equus caballus, UniProt P81908).
Chain of Cholinesterase (P81908 whole entry): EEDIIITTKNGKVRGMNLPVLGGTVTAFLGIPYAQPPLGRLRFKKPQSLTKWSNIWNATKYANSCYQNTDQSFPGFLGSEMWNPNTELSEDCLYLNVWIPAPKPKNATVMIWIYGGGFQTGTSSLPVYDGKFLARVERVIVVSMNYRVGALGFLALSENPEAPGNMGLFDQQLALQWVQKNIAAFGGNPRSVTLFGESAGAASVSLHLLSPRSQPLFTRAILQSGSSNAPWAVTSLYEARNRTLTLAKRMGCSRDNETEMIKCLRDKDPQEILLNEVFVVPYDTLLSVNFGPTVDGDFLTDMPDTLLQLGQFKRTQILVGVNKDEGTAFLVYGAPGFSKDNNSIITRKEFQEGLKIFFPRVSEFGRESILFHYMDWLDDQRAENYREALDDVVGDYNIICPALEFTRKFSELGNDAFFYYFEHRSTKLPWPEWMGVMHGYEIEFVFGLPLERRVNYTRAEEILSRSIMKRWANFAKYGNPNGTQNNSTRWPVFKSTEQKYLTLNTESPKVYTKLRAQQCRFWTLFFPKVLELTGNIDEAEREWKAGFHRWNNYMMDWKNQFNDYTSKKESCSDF
A further series is described as follows: cells. Conditions: Mus musculus, BV-2.

The values below come from ChEMBL document CHEMBL5143529, “Design, synthesis, and biological evaluation of novel (4-(1,2,4-oxadiazol-5-yl)phenyl)-2-aminoacetamide derivatives as multifunctional agents for the treatment of Alzheimer's disease” (Eur J Med Chem, 2022).

What is called IC50 is the concentration that inhibits the measured activity by half. Lower therefore signals greater potency in that assay.

A value given as a limit tells only on which side of the number the result lay.

Chain of Acetylcholinesterase (O42275 whole entry): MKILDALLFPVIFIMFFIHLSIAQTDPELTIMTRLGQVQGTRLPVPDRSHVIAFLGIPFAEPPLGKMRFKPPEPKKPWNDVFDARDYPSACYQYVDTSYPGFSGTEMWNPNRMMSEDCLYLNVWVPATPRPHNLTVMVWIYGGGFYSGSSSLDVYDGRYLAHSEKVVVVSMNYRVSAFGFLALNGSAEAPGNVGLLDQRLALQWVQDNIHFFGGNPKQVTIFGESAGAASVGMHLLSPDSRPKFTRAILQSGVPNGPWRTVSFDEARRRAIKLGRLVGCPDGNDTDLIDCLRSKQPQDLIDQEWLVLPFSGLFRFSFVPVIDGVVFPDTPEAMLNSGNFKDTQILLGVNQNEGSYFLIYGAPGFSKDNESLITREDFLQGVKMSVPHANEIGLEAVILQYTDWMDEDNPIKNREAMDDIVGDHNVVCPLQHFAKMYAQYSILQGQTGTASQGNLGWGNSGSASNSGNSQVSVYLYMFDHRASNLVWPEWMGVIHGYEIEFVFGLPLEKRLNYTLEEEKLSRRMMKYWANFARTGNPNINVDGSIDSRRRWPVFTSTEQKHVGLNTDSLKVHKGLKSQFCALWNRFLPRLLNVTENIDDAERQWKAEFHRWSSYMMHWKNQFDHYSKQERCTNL
Description for cells: Inhibition of NO production in LPS-induced mouse BV-2 cells pretreated for 1 hr followed by LPS stimulation and measured after 24 hrs by ELISA

Consider `O=C(CNc1ccc(Br)cc1)Nc1ccc(-c2nc(-c3ccnc(Nc4ccc(OC(F)(F)F)cc4)c3)no2)cc1`, for which the IC50 against Acetylcholinesterase was more than 50 µM; on Cholinesterase, 10.5 µM; in “cells”, 4.22 µM. For the same molecule, the viability at 5 µM in the series with PC-12 [1] was determined as 37.8%. The viability at 20 µM with PC-12 [2] came out at 46.5%. In addition, in series [3], the viability at 24 h, 25 µM was determined as 99.7%. Also, in series [4], the viability at 24 h, 50 µM worked out at 99.1%.

Consider `CCCCNCC(=O)Nc1ccc(-c2nc(-c3ccnc(Nc4ccc(OC(F)(F)F)cc4)c3)no2)cc1`, for which the IC50 was more than 50 µM on Acetylcholinesterase, 15.7 µM against Cholinesterase and 8.24 µM in the series “cells”. Moreover, the viability at 5 µM in the series on PC-12 [1] was 40%. The viability at 20 µM in the series on PC-12 [2] stood at 44.4%. Besides, in series [3], the viability at 24 h, 25 µM was 99.9%. Besides, the viability at 24 h, 50 µM in series [4] was 98.9%.

Take `O=C(CNc1ccc(F)c(F)c1)Nc1ccc(-c2nc(-c3ccnc(Nc4ccc(OC(F)(F)F)cc4)c3)no2)cc1`: the IC50 at Acetylcholinesterase is more than 50 µM; against Cholinesterase, 9.88 µM; in “cells” it was 4.8 µM. In addition, in the series on PC-12 [1], the viability at 5 µM is 35.7%. Moreover, the viability at 20 µM in the series on PC-12 [2] turned out to be 45.8%. Also, in series [3], the viability at 24 h, 25 µM was 99.4%. Also, in series [4], the viability at 24 h, 50 µM was found to be 97.3%.

As for `O=C(CNc1cccc(F)c1)Nc1ccc(-c2nc(-c3ccnc(Nc4ccc(OC(F)(F)F)cc4)c3)no2)cc1`, the IC50 at Acetylcholinesterase was more than 50 µM; against Cholinesterase, 5.51 µM; in the series “cells”, 3.16 µM. The viability at 5 µM with PC-12 [1] stood at 39.4%. Moreover, the viability at 20 µM in the series on PC-12 [2] amounted to 58.5%. Moreover, the viability at 24 h, 25 µM in series [3] stood at 99.6%. The viability at 24 h, 50 µM in series [4] is 99.3%.

Consider `COc1cccc(NCC(=O)Nc2ccc(-c3nc(-c4ccnc(Nc5ccc(OC(F)(F)F)cc5)c4)no3)cc2)c1`, for which the IC50 was more than 50 µM at Acetylcholinesterase, 33.5 µM against Cholinesterase and 13.2 µM in the series “cells”. Further, the viability at 5 µM in the series with PC-12 [1] worked out at 30.7%. Also, in the series with PC-12 [2], the viability at 20 µM was 33.7%. Moreover, in series [3], the viability at 24 h, 25 µM is 99.5%. Further, in series [4], the viability at 24 h, 50 µM amounted to 98.3%.

`Cc1cccc(NCC(=O)Nc2ccc(-c3nc(-c4ccnc(Nc5ccc(OC(F)(F)F)cc5)c4)no3)cc2)c1`: the IC50 is more than 50 µM at Acetylcholinesterase, 20.2 µM against Cholinesterase and 7.29 µM in “cells”. Also, the viability at 5 µM in the series with PC-12 [1] came to 50.1%. Besides, in the series with PC-12 [2], the viability at 20 µM worked out at 50.7%. In addition, the viability at 24 h, 25 µM in series [3] was 99.6%. For the same molecule, the viability at 24 h, 50 µM in series [4] turned out to be 99.2%.

With `O=C(CNC1CCCC1)Nc1ccc(-c2nc(-c3ccnc(Nc4ccc(OC(F)(F)F)cc4)c3)no2)cc1`, the IC50 against Acetylcholinesterase is more than 50 µM; at Cholinesterase, 16.6 µM; in the series “cells”, 2.66 µM. Besides, the viability at 5 µM in the series on PC-12 [1] worked out at 44.1%. Moreover, the viability at 20 µM with PC-12 [2] came to 57%. For the same molecule, in series [3], the viability at 24 h, 25 µM came to 99.5%. Also, the viability at 24 h, 50 µM in series [4] was found to be 98.2%.

`Oc1ccc(/C=C/c2cc(O)cc(O)c2)cc1` [RESVERATROL] yielded an IC50 in the series “cells” of 11 µM.

Turning to `Cc1ccccc1NCC(=O)Nc1ccc(-c2nc(-c3ccnc(Nc4ccc(OC(F)(F)F)cc4)c3)no2)cc1`, the IC50 against Acetylcholinesterase was more than 50 µM; at Cholinesterase, 25.8 µM; in “cells”, 8.74 µM. The viability at 5 µM with PC-12 [1] was found to be 45.2%. In addition, the viability at 20 µM with PC-12 [2] worked out at 55.2%. For the same molecule, the viability at 24 h, 25 µM in series [3] was 99.6%. Also, the viability at 24 h, 50 µM in series [4] was determined as 99.3%.

Take `O=C(CNCc1cccc(Cl)c1)Nc1ccc(-c2nc(-c3ccnc(Nc4ccc(OC(F)(F)F)cc4)c3)no2)cc1`: the figures for the IC50 against Acetylcholinesterase, at Cholinesterase and in “cells” were more than 50 µM, more than 50 µM and 14.6 µM, respectively. Also, in the series on PC-12 [1], the viability at 5 µM was determined as 33.4%. Besides, the viability at 20 µM in the series on PC-12 [2] was 43.9%. Moreover, the viability at 24 h, 25 µM in series [3] was found to be 99.8%. Also, in series [4], the viability at 24 h, 50 µM came to 99.7%.

For the molecule `O=C(CNc1ccc(Cl)cc1)Nc1ccc(-c2nc(-c3ccnc(Nc4ccc(OC(F)(F)F)cc4)c3)no2)cc1`, the IC50 was determined as 45.2 µM at Acetylcholinesterase, 7.39 µM on Cholinesterase and 2.58 µM in “cells”. For the same molecule, in the series on PC-12 [1], the viability at 5 µM turned out to be 43.6%. Moreover, in the series on PC-12 [2], the viability at 20 µM was determined as 61.6%. For the same molecule, the viability at 24 h, 25 µM in series [3] was 98.8%. Moreover, the viability at 24 h, 50 µM in series [4] was found to be 98.2%.

For the molecule `O=C(CNCc1ccc(F)cc1)Nc1ccc(-c2nc(-c3ccnc(Nc4ccc(OC(F)(F)F)cc4)c3)no2)cc1`, the half-inhibitory concentration (IC50) was more than 50 µM against Acetylcholinesterase, 37.8 µM against Cholinesterase and 9.23 µM in the series “cells”. In addition, in the series with PC-12 [1], the viability at 5 µM turned out to be 41.9%. The viability at 20 µM in the series on PC-12 [2] is 48.6%. Also, in series [3], the viability at 24 h, 25 µM came to 100%. Moreover, the viability at 24 h, 50 µM in series [4] came to 99.8%.

Take `O=C(CNCc1cccc(F)c1)Nc1ccc(-c2nc(-c3ccnc(Nc4ccc(OC(F)(F)F)cc4)c3)no2)cc1`: the results for the concentration for half-maximal inhibition (IC50) on Acetylcholinesterase, at Cholinesterase and in “cells” were more than 50 µM, 45.3 µM and 13 µM, respectively. In addition, in the series with PC-12 [1], the viability at 5 µM is 28.1%. Moreover, the viability at 20 µM with PC-12 [2] stood at 36.2%. Also, the viability at 24 h, 25 µM in series [3] was 98.4%. In addition, the viability at 24 h, 50 µM in series [4] turned out to be 96.7%.

Consider `CCCNCC(=O)Nc1ccc(-c2nc(-c3ccnc(Nc4ccc(OC(F)(F)F)cc4)c3)no2)cc1`, for which the results for the IC50 on Acetylcholinesterase, against Cholinesterase and in the series “cells” were more than 50 µM, 23.3 µM and 7.82 µM, respectively. Further, the viability at 5 µM in the series on PC-12 [1] came out at 41.4%. In the series on PC-12 [2], the viability at 20 µM is 52.8%. Further, the viability at 24 h, 25 µM in series [3] stood at 99.6%. Further, the viability at 24 h, 50 µM in series [4] stood at 99.5%.

In the case of `O=c1c(O)c(-c2ccc(O)c(O)c2)oc2cc(O)cc(O)c12` [QUERCETIN], the viability at 5 µM with PC-12 [1] is 48.2%. Further, the viability at 20 µM in the series with PC-12 [2] was found to be 59.4%. For the same molecule, in series [3], the viability at 24 h, 25 µM came out at 99.6%. Further, the viability at 24 h, 50 µM in series [4] worked out at 99.5%.

Regarding `O=C(CNc1cccc(Cl)c1)Nc1ccc(-c2nc(-c3ccnc(Nc4ccc(OC(F)(F)F)cc4)c3)no2)cc1`, the IC50 against Acetylcholinesterase is more than 50 µM; at Cholinesterase, 12.8 µM; in “cells” it was 3.66 µM. Also, in the series on PC-12 [1], the viability at 5 µM turned out to be 34.1%. Also, the viability at 20 µM in the series with PC-12 [2] turned out to be 37.7%. The viability at 24 h, 25 µM in series [3] amounted to 99.4%. In addition, the viability at 24 h, 50 µM in series [4] is 98.7%.

Take `COc1ccc(NCC(=O)Nc2ccc(-c3nc(-c4ccnc(Nc5ccc(OC(F)(F)F)cc5)c4)no3)cc2)cc1`: the IC50 is more than 50 µM against Acetylcholinesterase, more than 50 µM against Cholinesterase and 6.95 µM in the series “cells”. The viability at 5 µM with PC-12 [1] is 33.2%. Also, the viability at 20 µM in the series on PC-12 [2] is 44.6%. The viability at 24 h, 25 µM in series [3] came to 99%. Further, the viability at 24 h, 50 µM in series [4] was found to be 98.7%.

In the case of `O=C(CNC1CC1)Nc1ccc(-c2nc(-c3ccnc(Nc4ccc(OC(F)(F)F)cc4)c3)no2)cc1`, the IC50 against Acetylcholinesterase was 48.9 µM; on Cholinesterase, 24.3 µM; in “cells”, 5.67 µM. Besides, the viability at 5 µM in the series with PC-12 [1] was found to be 33.5%. Moreover, in the series with PC-12 [2], the viability at 20 µM was found to be 46.7%. Further, the viability at 24 h, 25 µM in series [3] came out at 100%. Further, the viability at 24 h, 50 µM in series [4] is 99.7%.

In the case of `CC(C)CNCC(=O)Nc1ccc(-c2nc(-c3ccnc(Nc4ccc(OC(F)(F)F)cc4)c3)no2)cc1`, the concentration for half-maximal inhibition (IC50) is more than 50 µM at Acetylcholinesterase, 29.4 µM at Cholinesterase and 3.88 µM in “cells”. For the same molecule, in the series on PC-12 [1], the viability at 5 µM amounted to 34.1%. The viability at 20 µM in the series with PC-12 [2] came to 43.9%. In addition, in series [3], the viability at 24 h, 25 µM came out at 99.9%. Besides, the viability at 24 h, 50 µM in series [4] came out at 99.6%.
